Measurements as given in patent US7833513B2, “Treatment of Alzheimer's Disease” (Rhode Island Hospital, priority 2004, dated 2010).

Legend:
Assay type in all cases: in vivo, Long Evans rat
insulin receptor [1] = target: T1, insulin receptor (Rattus norvegicus, UniProt P15127); experiment: ic-STZ ± PPAR agonist: equilibrium and saturation binding to insulin receptors in the brain; conditions: for BMAX, insulin receptor saturation binding in brains of treated rats: [125I]-insulin tracer, pooled brain membranes, 4 weeks after ic-STZ ± IP PPAR agonist; for mean insulin receptor binding: temporal lobe and cerebellum
T1 construct: from tissue; host or cells: rat brain (temporal lobe)
Method: (§1) On the same day, sub-sets of the ic-STZ group were given a single intra-peritoneal injection of vehicle (saline), or a PPAR-α (GW7647; 25 ug/Kg), PPAR-δ (L-165,041; 2 μg/Kg), or PPAR-γ (F-L-Leu; 20 μg/Kg) activator (CalBiochem, Carlsbad, Calif.). […] In addition, at 4 weeks of age, memory and learning were evaluated using a Morris Water Maze (R. W. Hickey, M. Akino, S. Strausbaugh, G. M. De Courten-Myers. Use of the Morris water maze and acoustic startle chamber to evaluate neurologic injury after asphyxial arrest in rats. Pediatr Res 39(1) (1996), 77-84). The procedures and use of rats in these experiments were approved by the Lifespan-Rhode Island Hospital IACUC committee.
(§2) Membrane protein extracted from fresh frozen brain tissue was used for competitive equilibrium and saturation binding assays. For total binding in equilibrium binding assays, duplicate samples were incubated in 100 μl reactions containing binding buffer (100 mM HEPES, pH 8.0, 118 mM NaCl, 1.2 mM MgSO4, 8.8 mM dextrose, 5 mM KCl, 1% bovine serum albumin) and 100 nCi/ml of [^125I] […] To measure total binding in saturation binding assays, samples from 8-12 brains per group were pooled in equal proportions, and duplicate samples were incubated in 100 μl reactions containing binding buffer and 0.0031 to 1 μCi/ml of [^125I] […] To detect non-specific binding in the equilibrium and saturation binding assays, duplicate reactions were incubated with the same concentrations of radiolabeled tracer plus 0.1 μM unlabeled (cold) competitive ligand. After 16 hours incubation at 4° C., bound radiolabeled tracer was precipitated with bovine gamma globulin and polyethylene glycol 8000. The precipitate (bound ligand) and supernatant (free ligand) fractions were counted in an LKB CompuGamma CS Gamma counter. Specific binding was calculated by subtracting fmols of non-specific binding, i.e. amount bound in the presence of excess cold ligand, from total fmols bound in the absence of unlabeled competitive ligand. GraphPad Prism 4 software (San Diego, Calif.) was used to calculate saturation binding (BMAX) and binding affinity (Kd) for each data set.

IGF-II receptor = target: T2, IGF-II receptor (Rattus norvegicus, UniProt G3V824); experiment: ic-STZ ± PPAR agonist: equilibrium and saturation binding to IGF-II receptors in the brain; conditions: for BMAX, IGF-II receptor saturation binding in brains of treated rats: [125I]-IGF-II tracer, pooled brain membranes, 4 weeks after ic-STZ ± IP PPAR agonist
T2 construct: from tissue; host or cells: rat brain (temporal lobe)
Method: as §1, §2

learning and memory = experiment: Morris Water Maze learning and memory test; conditions: for behavior, learning and memory during the training period: 4-week old rats; for mean latency period to arrive at the hidden platform relative to control: Trial Day 4 / final day of testing
Method: as §1
Morris Water Maze Behavioral Tests: A standard Morris Water Maze was used to measure learning (R. W. Hickey, M. Akino, S. Strausbaugh, G. M. De Courten-Myers. Use of the Morris water maze and acoustic startle chamber to evaluate neurologic injury after asphyxial arrest in rats. Pediatr Res 39(1) (1996), 77-84). On the first day of testing, the rats were oriented to the water maze and educated about the location of the platform. On the 3 subsequent days of testing, the platform was submerged just below the surface, and the rats were tested for their learning and memory of the platform location by measuring the latency period required to reach and recognize the platform. The rats were allowed 120 seconds to locate the platform, after which they were guided to it. After landing on the platform, the rats were allowed to orient themselves for 15 seconds prior to being rescued. The rats were tested three times each day, with 30 min. intervals between trials. The rats were placed in the same quadrant of the water maze for every trial, except for trials 2 and 3 on the final day testing, when the start locations were randomized to test mastery of platform memory.

insulin receptor [2] = conditions: temporal lobe membrane extracts
Method: Membrane proteins were extracted from fresh frozen temporal lobe tissue (˜100 mg) by Polytron (Glen Mils Inc., Clifton, N.J.) homogenization in 5 volumes of NP-40 lysis buffer (50 mM Tris-HCl, pH 7.5, 150 mM NaCl, 1 mM EDTA, 2 mM EGTA, 1% NP-40) containing protease (1 mM PMSF, 0.1 mM TPCK, 1 μg/ml aprotinin, 1 μg/ml pepstatin A, 0.5 μg/ml leupeptin, 1 mM NaF, 1 mM Na4P2O7) and phosphatase (2 mM Na3VO4) inhibitors. The supernatant fractions obtained after centrifuging the samples at 10,000×g for 15 minutes at 4° C. were used in the binding assays. […] Protein concentrations were measured with the bicinchoninic acid (BCA) assay (Pierce, Rockford, Ill.).
Competitive equilibrium binding assays were used to assess growth factor binding in relation to ic-STZ-treatment. […]
All reactions were performed in 1.5 ml Eppendorff tubes, and the incubations were performed at 4° C. for 16 hours with gentle platform agitation. […] Each sample was counted for 1 minute in an LKB CompuGamma CS Gamma counter. Specific binding was calculated by subtracting fmols of non-specific binding, i.e. amount bound in the presence of excess cold ligand, from total fmols bound (absence of unlabeled competitive ligand). The binding assay results were analyzed using the GraphPad Prism 4 software (GraphPad Software, Inc., San Diego, Calif.).

IGF-I receptor = target: T3, IGF-I receptor (Rattus norvegicus, UniProt P24062); experiment: ic-STZ ± PPAR agonist: equilibrium and saturation binding to IGF-I receptors in the brain; conditions: for BMAX, IGF-1 receptor saturation binding in brains of treated rats: [125I]-IGF-I tracer, pooled brain membranes, 4 weeks after ic-STZ ± IP PPAR agonist; for IGF-I receptor binding: cerebellum
T3 construct: from tissue; host or cells: rat brain (temporal lobe)
Method: as §1, §2

[3] = tested on: phospho-GSK-3β, GSK-3β, phospho-Tau, Tau; experiment: ic-STZ ± PPAR agonist: Western blot analysis of GSK-3β and Tau; conditions: hypothalamus
Method: as §1
Western Blot Analysis: Western blot analysis was used to assess the levels of Tau, phospho-Tau, GSK-3β, phospho-GSK-3β, and β-actin in temporal lobe tissue (E. J. Rivera, A. Goldin, N. Fulmer, R. Tavares, J. R. Wands, S. M. de la Monte, J. Alzheimers Dis 8(3) (2005), 247-68). Briefly, samples containing 40 μg protein were fractionated by sodium dodecyl sulfate, polyacrylamide gel electrophoresis (SDS-PAGE) (F. Ausubel, R. Brent, R. Kingston, D. Moore, J. Seidman, J. Smnith, et al. Current Protocols in Molecular Biology. (2000)). and transferred to PVDF membranes. Non-specific binding sites were adsorbed with SuperBlock-TBS (Pierce, Rockford, Ill.). Membranes were incubated over night at 4° C. with primary antibody (0.1-1 μg/ml-individually optimized) diluted in Tris-buffered saline (TBS; 50 mM Tris, 150 mM NaCl, pH 7.4) containing 0.5% bovine serum albumin, 0.05% Tween-20, and 0.025% NaN3 (TBST-BSA). Immunoreactivity was detected using horseradish peroxidase (HRP) conjugated IgG (Pierce, Rockford, Ill.) diluted to 1:50,000 in TBST+0.5% cassein, Western Lightning enhanced chemiluminescence reagents (Perkin Elmer Life Sciences Inc., Boston, Mass.), and digital imaging. Immunoreactivity was quantified using the Kodak Digital Science Imaging Station (NEN Life Sciences, Boston, Mass.).
PPAR Agonist Treatment Reduces ic-STZ-Mediated AD-Type Neurodegeneration: In AD, the neuronal cytoskeletal lesions that correlate with dementia, i.e. neurofibrillary tangles, dystrophic neuritis, and neuropil threads, contain insoluble fibrillar structures that are generated in part from hyper-phosphorylated Tau (K. Iqbal, C. Alonso Adel, S. Chen, M. O. Chohan, E. El-Akkad, C. X. Gong, et al. Tau pathology in Alzheimer disease and other tauopathies. Biochim Biophys Acta 1739(2-3) (2005), 198-210). […] J Alzheimers Dis 7(1) (2005), 63-80). […] Therefore, it was of interest to characterize the effects of PPAR agonists on GSK-3β activity and Tau phosphorylation in ic-STZ-treated brains. The levels of phospho-GSK-3β, GSK-3β, phospho-Tau, Tau, and β-actin ([…]) were examined in temporal lobe and hypothalamus homogenates by Western blot analysis. Immunoreactivity was detected and quantified by digital imaging, and the mean levels of protein expression and ratios of phospho-GSK-3β/GSK-3β and phospho-Tau/Tau measured in 4 replicate samples are depicted graphically (FIG. 31). Phospho-GSK-3β immunoreactivity was detected with antibodies directed against the Ser21/9 motif, corresponding to the inactivate form of the kinase.

T1 sequence (P15127 27-759 limits assumed): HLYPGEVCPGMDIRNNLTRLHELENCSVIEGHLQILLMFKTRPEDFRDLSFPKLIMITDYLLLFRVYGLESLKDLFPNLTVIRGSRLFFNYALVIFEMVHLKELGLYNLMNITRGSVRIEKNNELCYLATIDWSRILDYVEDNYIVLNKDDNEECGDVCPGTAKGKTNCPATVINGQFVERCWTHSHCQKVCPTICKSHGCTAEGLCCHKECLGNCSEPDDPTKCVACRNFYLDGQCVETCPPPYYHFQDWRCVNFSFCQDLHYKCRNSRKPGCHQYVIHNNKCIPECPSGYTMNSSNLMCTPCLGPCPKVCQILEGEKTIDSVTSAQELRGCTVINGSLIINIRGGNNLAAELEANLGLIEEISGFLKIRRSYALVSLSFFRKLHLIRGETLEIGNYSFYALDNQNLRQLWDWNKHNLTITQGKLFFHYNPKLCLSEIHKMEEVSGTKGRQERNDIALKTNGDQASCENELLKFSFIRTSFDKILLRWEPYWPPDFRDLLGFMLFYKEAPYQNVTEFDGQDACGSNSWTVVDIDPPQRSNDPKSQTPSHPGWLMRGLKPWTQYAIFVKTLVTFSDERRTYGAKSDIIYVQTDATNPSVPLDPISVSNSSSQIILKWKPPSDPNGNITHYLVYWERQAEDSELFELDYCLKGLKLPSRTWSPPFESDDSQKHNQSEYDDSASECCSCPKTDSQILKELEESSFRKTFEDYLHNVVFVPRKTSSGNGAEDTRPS
T1 sequence (P15127 764-1383 limits assumed): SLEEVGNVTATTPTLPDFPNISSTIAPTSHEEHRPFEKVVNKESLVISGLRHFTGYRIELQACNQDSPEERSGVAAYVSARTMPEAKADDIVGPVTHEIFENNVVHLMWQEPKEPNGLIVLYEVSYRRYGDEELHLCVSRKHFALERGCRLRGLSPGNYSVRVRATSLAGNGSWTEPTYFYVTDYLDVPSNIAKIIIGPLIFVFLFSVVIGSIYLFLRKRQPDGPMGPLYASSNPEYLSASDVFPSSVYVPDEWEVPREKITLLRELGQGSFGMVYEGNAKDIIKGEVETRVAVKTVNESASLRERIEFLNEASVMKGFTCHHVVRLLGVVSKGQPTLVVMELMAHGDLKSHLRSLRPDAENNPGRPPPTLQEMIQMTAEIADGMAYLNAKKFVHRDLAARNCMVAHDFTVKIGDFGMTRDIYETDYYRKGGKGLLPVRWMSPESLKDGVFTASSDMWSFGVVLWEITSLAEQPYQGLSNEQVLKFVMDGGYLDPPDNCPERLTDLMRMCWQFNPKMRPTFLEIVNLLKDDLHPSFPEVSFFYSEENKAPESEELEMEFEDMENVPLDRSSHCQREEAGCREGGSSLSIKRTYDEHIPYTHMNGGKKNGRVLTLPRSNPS
T3 sequence (P24062 31-737 limits assumed): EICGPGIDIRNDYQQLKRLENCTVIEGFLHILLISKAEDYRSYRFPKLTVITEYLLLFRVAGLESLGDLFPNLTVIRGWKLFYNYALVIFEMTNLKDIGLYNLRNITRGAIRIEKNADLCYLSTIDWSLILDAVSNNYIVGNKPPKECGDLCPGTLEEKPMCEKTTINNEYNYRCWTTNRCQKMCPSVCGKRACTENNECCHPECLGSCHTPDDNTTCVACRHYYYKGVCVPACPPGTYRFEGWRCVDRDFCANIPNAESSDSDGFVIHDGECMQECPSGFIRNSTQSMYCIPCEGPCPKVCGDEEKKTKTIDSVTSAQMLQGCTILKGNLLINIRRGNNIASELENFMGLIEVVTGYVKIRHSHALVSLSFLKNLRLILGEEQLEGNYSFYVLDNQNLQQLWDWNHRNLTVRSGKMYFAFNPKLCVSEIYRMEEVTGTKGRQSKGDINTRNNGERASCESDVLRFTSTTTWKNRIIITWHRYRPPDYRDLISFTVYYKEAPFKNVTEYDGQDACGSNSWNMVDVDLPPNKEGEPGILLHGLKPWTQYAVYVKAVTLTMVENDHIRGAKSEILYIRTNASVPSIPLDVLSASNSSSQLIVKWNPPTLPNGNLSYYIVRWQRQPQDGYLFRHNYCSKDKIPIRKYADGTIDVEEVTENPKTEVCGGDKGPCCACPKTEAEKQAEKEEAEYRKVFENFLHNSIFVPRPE
T3 sequence (P24062 742-1370 limits assumed): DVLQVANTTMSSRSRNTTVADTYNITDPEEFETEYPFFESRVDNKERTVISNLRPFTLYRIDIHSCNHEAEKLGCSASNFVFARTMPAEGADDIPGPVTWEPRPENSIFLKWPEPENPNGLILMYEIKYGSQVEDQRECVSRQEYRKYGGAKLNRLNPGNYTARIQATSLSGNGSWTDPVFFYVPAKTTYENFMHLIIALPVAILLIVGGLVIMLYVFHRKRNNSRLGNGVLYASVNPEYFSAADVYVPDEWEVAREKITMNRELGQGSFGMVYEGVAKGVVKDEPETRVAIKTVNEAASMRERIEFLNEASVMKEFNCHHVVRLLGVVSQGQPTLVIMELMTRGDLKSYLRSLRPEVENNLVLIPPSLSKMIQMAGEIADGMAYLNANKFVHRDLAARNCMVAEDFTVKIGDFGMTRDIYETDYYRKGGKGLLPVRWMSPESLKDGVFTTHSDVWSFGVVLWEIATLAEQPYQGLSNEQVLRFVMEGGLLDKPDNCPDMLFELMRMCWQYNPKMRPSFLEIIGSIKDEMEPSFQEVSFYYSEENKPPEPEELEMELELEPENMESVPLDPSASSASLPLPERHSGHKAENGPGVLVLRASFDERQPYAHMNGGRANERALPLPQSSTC

Row | Structure (SMILES) | BMAX, insulin receptor saturation binding in brains of treated rats (insulin receptor [1]) | BMAX, IGF-II receptor saturation binding in brains of treated rats (IGF-II receptor) | BMAX, IGF-1 receptor saturation binding in brains of treated rats (IGF-I receptor) | mean insulin receptor binding (insulin receptor [1]) | behavior, learning and memory during the training period (learning and memory) | mean latency period to arrive at the hidden platform relative to control (learning and memory) | IGF-I receptor binding (IGF-I receptor) | phospho-GSK-3β level [3] | phospho-Tau level relative to control [3] | also measured
1 | CN(N=O)C(=O)NC1C(O)OC(CO)C(O)C1O (stereo not drawn) [STZ] | 0.8421 fmol/mg protein | 6.431 fmol/mg protein | 1.204 fmol/mg protein |  |  |  |  |  |  | steady-state insulin receptor binding (insulin receptor [1]; temporal lobe, hypothalamus, cerebellum): significantly reduced; binding to IGF-II receptors (IGF-II receptor; temporal lobe and cerebellum): reduced; mean latency period vs control (learning and memory; first 3 days of testing): approximately twice as long as control; mean latency vs control (learning and memory; fourth day): no significant differences; learning and memory in Morris Water Maze (learning and memory; rats surviving 4 weeks or longer, preliminary studies): striking impairments in learning and memory; reduction of mean equilibrium binding to the insulin receptor vs control (insulin receptor [2]): approximately 85%; binding to IGF-I receptors (IGF-I receptor; hypothalamus or cerebellum): not in the hypothalamus or cerebellum; binding to IGF-I receptors (IGF-I receptor; temporal lobe): significantly reduced
2 | CC(C)C[C@H](NC(=O)OCC1c2ccccc2-c2ccccc21)C(=O)O [PPAR-γ agonist, F-L-Leu] | 1.127 fmol/mg protein | 9.223 fmol/mg protein | 3.123 fmol/mg protein | significantly increased | delayed learning and impaired memory | significantly higher | significantly increased | significantly reduced | moderately reduced | BMAX for IGF-I receptor (in words) vs ic-STZ group (IGF-I receptor; rat, in vivo): increased
3 | CCCc1c(OCCCOc2ccc(OCC(=O)O)cc2)ccc(C(C)=O)c1O [PPAR-δ agonist, L-165,041] | 2.186 fmol/mg protein | 20.22 fmol/mg protein | 0.7399 fmol/mg protein | significantly increased | no detectable abnormalities in behavior, learning, or memory | no significant difference | significantly increased | significantly increased | moderately reduced | insulin receptor binding (insulin receptor [1]; hypothalamus): significantly increased; IGF-II receptor binding (IGF-II receptor; cerebellum): significantly increased; BMAX for IGF-II receptor (in words) vs ic-STZ group (IGF-II receptor; rat, in vivo): increased
4 | CC(C)(Sc1ccc(CCN(CCCCC2CCCCC2)C(=O)NC2CCCCC2)cc1)C(=O)O [PPAR-α agonist, GW7647] | 1.172 fmol/mg protein | 7.291 fmol/mg protein | 0.6361 fmol/mg protein | significantly increased | delayed learning and impaired memory | significantly higher |  | significantly increased | significantly higher | total Tau protein level [3]: slightly higher levels of Tau relative to all other groups
